{"source": "patent US20230020469A1", "about": "“USE OF CO-CRYSTALS OF TRAMADOL AND CELECOXIB FOR TREATING PAIN WHILE REDUCING THE ABUSE LIABILITY OF TRAMADOL” (ESTEVE PHARMACEUTICALS, S.A., priority 2019, published 2023)", "experiment": "Single dose, open-label, 4-period crossover pharmacokinetic study; plasma tramadol and O-desmethyltramadol (M1) by HPLC-MS/MS; AQ=Cmax/Tmax", "conditions": "for AQ for tramadol, comparison between treatments (in words): 4-way cross-over study, co-crystal vs Ultram® and vs Ultram® and Celebrex® taken concomitantly, Ultram® alone vs in combination; for O-desmethyltramadol AQ / Tramadol AQ: n 33, 2 × 100 mg co-crystal E-58425 tablets oral (Treatment 1), healthy subjects", "protocol": "The study was a single center, randomized, single dose, open-label, 4-period, 4-sequence, crossover design in healthy male and female subjects.\nThe products were administered to 36 subjects. The wash-out between the periods for each subject was of 7 calendar days.\nSeparate blood samples were obtained for analysis of tramadol/M1 metabolite and for analysis of celecoxib (data not shown).\nAs soon as possible following blood collection, samples were centrifuged at a temperature of 4° C. nominal and at approximately 1500 g for 10 minutes. The plasma obtained was separated into duplicate polypropylene culture tubes. […] The samples were frozen in an upright position and retained in the clinic's freezers at a temperature of −20° C. nominal until sent on dry ice to the bioanalytical facility for assay.\nThe experimental human plasma samples were assayed for tramadol and M1 metabolite (0-desmethyltramadol) and also for celecoxib (data not shown) using two different validated bioanalytical methods by HPLC with MS/MS detection.\nSample pre-treatment involved the liquid-liquid extraction of tramadol and O-desmethyltramadol from 0.100 mL of human plasma; tramadol-D6 and O-desmethyltramadol-D6 were used as the internal standards (IS1 and IS2 respectively). The compounds were identified and quantified using Hilic HPLC with MS/MS detection over a theoretical concentration range of 2.00 ng/mL to 800.00 ng/mL for tramadol and 0.500 ng/mL to 200.00 ng/mL for O-desmethyltramadol. The concentrations were calculated using peak area ratios and the linearity of the calibration curve was determined using a weighted (1/x^2) linear (y=mx+b) least squares regression analysis for tramadol and for O-desmethyltramadol.\nPharmacokinetic parameters were estimated from the individual plasma concentration—time profile for each subject. The main absorption and disposition parameters were obtained using a non-compartmental approach with a log-linear terminal phase assumption. Maximum observed plasma concentration (Cmax) and the time of maximum observed plasma concentration (Tmax) were obtained directly from the experimental data. The trapezoidal rule was used to estimate the area under the curve (AUC; data not shown) and the terminal phase was estimated by maximizing the coefficient of determination estimated from the log-linear regression model (T1/2; data not shown). The abuse quotient was obtained using the following expression AQ=Cmax/Tmax."}
{"smiles": "COc1cccc(C2(O)CCCCC2CN(C)C)c1.Cc1ccc(-c2cc(C(F)(F)F)nn2-c2ccc(S(N)(=O)=O)cc2)cc1.Cl", "note": "(racemic) [Co-crystal E-58425, co-crystal of (rac)-tramadol.HCl and celecoxib]", "values": [{"measurement": "AQ for tramadol, comparison between treatments (in words)", "value": "lower"}, {"measurement": "AQ for tramadol, comparison between treatments (in words)", "setting": "listed as co-crystal E-58425", "value": "better (lower)"}, {"measurement": "O-desmethyltramadol AQ", "setting": "Mean", "value": "13.5 ng/(mL · h)"}, {"measurement": "Tramadol AQ", "setting": "Mean", "value": "70.5 ng/(mL · h)"}, {"measurement": "O-desmethyltramadol AQ", "setting": "Median", "value": "13.3 ng/(mL · h)"}, {"measurement": "Tramadol AQ", "setting": "Median", "value": "70.7 ng/(mL · h)"}]}
